Laboratory results reported in ChEMBL document CHEMBL6121062, “Discovery, Optimization, and Preclinical Pharmacology of EP652, a METTL3 Inhibitor with Efficacy in Liquid and Solid Tumor Models” (J Med Chem, 2025).
Blank lines part the entries; values can stand above or below the compound they belong to.

Key:
Kasumi 1 = experiment: Antiproliferative activity against human Kasumi 1 cells assessed as inhibition of cell viability incubated for 72 hrs by ATPlite assay; type: functional, cell-based; conditions: Kasumi 1, 72 h
[1] = Lipophilicity, logD of compound in 1-octanol/PBS at pH 7.4 incubated for 24 hrs by HPLC analysis; type: physicochemical
Cytochrome P450 3A4 = Cytochrome P450 3A4 (Homo sapiens, UniProt P08684); experiment: Inhibition of CYP3A4 (unknown origin); type: ADME
[2] = Half life in rat liver microsomes; type: ADME, Microsome
METTL3/METTL14 [3] = target: T1, METTL3/METTL14 (Homo sapiens, UniProt Q86U44); experiment: Displacement of [3H]-SAM from METTL3/METTL14 (unknown origin) using 5'biotinylated-UACACUCGAUCUGGACUAAAGGUGCUC-3' RNA as substrate preincubated for 10 mins followed by substrate/[3H]-SAM addition measured after 90 mins by SPA; type: protein-complex assay
METTL3/METTL14 [4] = target: T1, METTL3/METTL14; experiment: Inhibition of METTL3/METTL14-mediated m6A mRNA expression in human Calu-6 cells incubated for 24 hrs by LC-MS/MS analysis; type: cell-based
METTL3/METTL14 [5] = target: T1, METTL3/METTL14; experiment: Inhibition of METTL3/METTL14-mediated m6A mRNA expression in human SK-OV-3 cells incubated for 24 hrs by LC-MS/MS analysis; type: cell-based
METTL3/METTL14 [6] = target: T1, METTL3/METTL14; experiment: Inhibition of METTL3/METTL14-mediated m6A mRNA expression in human FaDu cells incubated for 24 hrs by LC-MS/MS analysis; type: cell-based
[7] = In vivo inhibition of METTL3/METTL14-mediated m6A mRNA expression in PBMC of rat at 3 to 30 mg/kg relative to control; type: functional; conditions: dose 3-30 mg/kg
A549 = experiment: Antiproliferative activity against human A549 cells assessed as inhibition of cell viability incubated for 72 hrs by ATPlite assay; type: functional, cell-based; conditions: A549, 72 h
Rattus norvegicus = experiment: In vivo inhibition of METTL3/METTL14-mediated m6A mRNA expression in PBMC of rat; type: functional, organism-based; conditions: dose 3-30 mg/kg
METTL3/METTL14 [8] = target: T1, METTL3/METTL14; experiment: Inhibition of METTL3/METTL14-mediated m6A mRNA expression in human Kasumi 1 cells incubated for 24 hrs by LC-MS/MS analysis; type: cell-based
METTL3/METTL14 [9] = target: T1, METTL3/METTL14; experiment: Inhibition of METTL3/METTL14-mediated m6A mRNA expression in human MV4-11 cells incubated for 24 hrs by LC-MS/MS analysis; type: cell-based
NCI-H1650 = experiment: Growth inhibition of human NCI-H1650 cells spheroid model; type: functional, cell-based
[10] = Unbound AUC in Sprague-Dawley rat at 1 mg/kg/day, iv measured for 24 hrs by LC-MS/MS analysis; type: ADME, organism-based; conditions: in vivo
MV4-11 = experiment: Antiproliferative activity against human MV4-11 cells assessed as inhibition of cell viability incubated for 72 hrs by ATPlite assay; type: functional, cell-based; conditions: MV4-11, 72 h
Caov-3 cell line = experiment: Antiproliferative activity against human Caov-3 cells assessed as inhibition of cell viability incubated for 72 hrs by ATPlite assay; type: functional, cell-based; conditions: Caov-3, 72 h
FaDu = experiment: Antiproliferative activity against human FaDu cells assessed as inhibition of cell viability incubated for 72 hrs by ATPlite assay; type: functional, cell-based
SK-OV-3 = experiment: Antiproliferative activity against human SK-OV-3 cells assessed as inhibition of cell viability incubated for 72 hrs by ATPlite assay; type: functional, cell-based; conditions: SK-OV-3, 72 h
[11] = Unbound AUC in mouse at 30 mg/kg, ip; type: ADME, organism-based; conditions: in vivo
METTL3/METTL14 [12] = target: T1, METTL3/METTL14; experiment: Inhibition of METTL3/METTL14-mediated m6A mRNA expression in human A549 cells incubated for 24 hrs by LC-MS/MS analysis; type: cell-based
Calu-6 = experiment: Antiproliferative activity against human Calu-6 cells assessed as inhibition of cell viability incubated for 72 hrs by ATPlite assay; type: functional, cell-based; conditions: Calu-6, 72 h

T1 sequence (Q86U44 whole entry): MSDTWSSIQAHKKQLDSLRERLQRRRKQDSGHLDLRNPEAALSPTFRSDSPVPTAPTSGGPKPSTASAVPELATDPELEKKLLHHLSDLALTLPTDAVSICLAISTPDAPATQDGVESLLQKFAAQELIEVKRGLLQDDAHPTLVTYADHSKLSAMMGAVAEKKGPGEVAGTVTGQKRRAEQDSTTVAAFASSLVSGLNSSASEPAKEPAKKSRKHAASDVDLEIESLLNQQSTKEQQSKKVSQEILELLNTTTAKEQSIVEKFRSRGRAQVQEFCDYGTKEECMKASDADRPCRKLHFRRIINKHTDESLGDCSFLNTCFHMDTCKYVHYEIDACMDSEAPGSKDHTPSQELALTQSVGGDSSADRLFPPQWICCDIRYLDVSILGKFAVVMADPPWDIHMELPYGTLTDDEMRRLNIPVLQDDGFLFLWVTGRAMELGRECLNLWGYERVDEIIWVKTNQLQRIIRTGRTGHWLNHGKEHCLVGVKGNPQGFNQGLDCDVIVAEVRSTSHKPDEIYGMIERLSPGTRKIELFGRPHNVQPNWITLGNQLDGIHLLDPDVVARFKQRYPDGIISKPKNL
T1 sequence (Q9HCE5 whole entry, further chain): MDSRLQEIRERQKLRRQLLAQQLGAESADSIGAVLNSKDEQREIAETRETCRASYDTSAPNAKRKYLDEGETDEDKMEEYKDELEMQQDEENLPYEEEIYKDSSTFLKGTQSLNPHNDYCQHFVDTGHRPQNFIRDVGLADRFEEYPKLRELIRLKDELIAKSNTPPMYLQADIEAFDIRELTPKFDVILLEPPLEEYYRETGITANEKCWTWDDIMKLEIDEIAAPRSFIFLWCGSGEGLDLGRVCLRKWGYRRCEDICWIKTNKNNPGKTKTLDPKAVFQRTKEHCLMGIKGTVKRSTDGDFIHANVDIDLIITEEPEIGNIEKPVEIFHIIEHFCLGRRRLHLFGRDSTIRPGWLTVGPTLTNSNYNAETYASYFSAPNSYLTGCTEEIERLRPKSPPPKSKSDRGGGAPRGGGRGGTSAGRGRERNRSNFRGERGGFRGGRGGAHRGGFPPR
Cytochrome P450 3A4, sequence (P08684 whole entry): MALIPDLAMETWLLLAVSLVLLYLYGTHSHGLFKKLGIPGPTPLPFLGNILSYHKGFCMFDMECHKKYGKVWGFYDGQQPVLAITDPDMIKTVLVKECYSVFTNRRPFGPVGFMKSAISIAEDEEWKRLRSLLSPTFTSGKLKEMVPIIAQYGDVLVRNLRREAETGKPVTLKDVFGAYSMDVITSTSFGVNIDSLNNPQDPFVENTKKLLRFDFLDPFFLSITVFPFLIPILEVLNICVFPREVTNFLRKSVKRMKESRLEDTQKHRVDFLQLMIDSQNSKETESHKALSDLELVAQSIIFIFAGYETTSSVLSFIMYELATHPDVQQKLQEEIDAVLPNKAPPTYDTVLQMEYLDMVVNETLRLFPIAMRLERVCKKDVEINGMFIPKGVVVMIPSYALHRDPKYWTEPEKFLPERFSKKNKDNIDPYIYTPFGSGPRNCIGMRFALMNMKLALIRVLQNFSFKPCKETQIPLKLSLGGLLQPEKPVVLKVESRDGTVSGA

logD at 24 h [1]: 1.89 | IC50 (Cytochrome P450 3A4): ~800 nM | half-life [2]: 16 min | IC50 (METTL3/METTL14 [3]): 2 nM | IC50 (METTL3/METTL14 [4]): 100 nM
Compound: COc1cc(-c2cn(Cc3ccc(N4CCC[C@@H](NCC5CCC5)C4)nn3)nn2)c2cn[nH]c2c1
IC50 (Kasumi 1): 629 nM

IC50 (METTL3/METTL14 [5]): 134 nM | IC50 (METTL3/METTL14 [6]): 331 nM | IC50 (A549): > 5000 nM | IC50 (METTL3/METTL14 [8]): 138 nM | IC50 (METTL3/METTL14 [9]): 182 nM | IC50 (NCI-H1650): 2060 nM | fAUC [10]: 4.6 µM·min | IC50 (MV4-11): 7630 nM | IC50 (SK-OV-3): 371 nM | logD at 24 h [1]: 1.9 | fAUC [11]: 298.1 µM·min | IC50 (METTL3/METTL14 [3]): 4 nM | IC50 (METTL3/METTL14 [12]): 264 nM | IC50 (METTL3/METTL14 [4]): 169 nM | IC50 (Calu-6): 1140 nM
Compound: O=C(NCc1ccc2cc(CNCC3CCC3)[nH]c2c1)c1cc(=O)n2ccccc2n1
inhibition (INH) [7]: <=61% | IC50 (Kasumi 1): 1160 nM | inhibition (Rattus norvegicus): Dose-dependent-effect | IC50 (Caov-3 cell line): 563 nM | IC50 (FaDu): 2210 nM
